The subject of the assay is BDF1 mice, P388 leukemia ip, median survival T/C. Kind of assay: NCI In Vivo Anticancer Drug Screen. Data for tumor model P388 Leukemia (intraperitoneal) in B6D2F1 (BDF1) mice. As to conditions: endpoint: median survival time, higher = longer survival. Summed up:
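Compound-treated tumour-bearing mice were compared with vehicle-treated controls. Survival was recorded, and the value is the treated-group measurement divided by the control-group measurement (T/C).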

[1] abbreviates: dose: 6.25 mg/kg/injection, schedule: Q01DX009 (ip), vehicle: saline.
[2] abbreviates: dose: 12.5 mg/kg/injection, schedule: Q01DX009 (ip), vehicle: saline.
Where [3] appears, read: dose: 50.0 mg/kg/injection, schedule: Q01DX009 (ip), vehicle: saline.
Setting [4] is: dose: 100.0 mg/kg/injection, schedule: Q01DX009 (ip), vehicle: Klucel (hydroxypropylcellulose) (HPC).
Setting [5] is: dose: 25.0 mg/kg/injection, schedule: Q04DX003 (ip), vehicle: saline with Tween-80.
Where [6] appears, read: dose: 50.0 mg/kg/injection, schedule: Q04DX003 (ip), vehicle: saline with Tween-80.
Where [7] appears, read: dose: 100.0 mg/kg/injection, schedule: Q04DX003 (ip), vehicle: saline with Tween-80.
The mark [8] stands for this setting: dose: 200.0 mg/kg/injection, schedule: Q04DX003 (ip), vehicle: saline with Tween-80.
Setting [9] is: dose: 100.0 mg/kg/injection, schedule: Q01DX009 (ip), vehicle: saline with Tween-80.
Where [10] appears, read: dose: 200.0 mg/kg/injection, schedule: Q01DX009 (ip), vehicle: saline with Tween-80.

“And” between values parts separate entries of the source, which are not always exact repeats. Identical values can stand only once. Toxic doses and inconclusive results are not listed.

Regarding `N[C@H](C(=O)O)[C@H]1ON=C(Cl)[C@@H]1O`, the T/C runs as follows: (dose: 0.5 mg/kg/injection, schedule: Q01DX009 (ip), vehicle: saline with Tween-80) 105 % of control; (dose: 1.0 mg/kg/injection, schedule: Q01DX009 (ip), vehicle: saline with Tween-80) 105 % of control; (dose: 2.0 mg/kg/injection, schedule: Q01DX009 (ip), vehicle: saline with Tween-80) 117 % of control; under setting [1], 160 % of control; (dose: 8.0 mg/kg/injection, schedule: Q01DX009 (ip), vehicle: saline) 160 % of control; (dose: 12.5 mg/kg/injection, schedule: Q01DX009 (ip), vehicle: Klucel (hydroxypropylcellulose) (HPC)) 239 % of control. In addition, the T/C runs as follows: under setting [2], 165 % of control; (dose: 12.5 mg/kg/injection, schedule: Q04DX003 (ip), vehicle: saline) 96 % of control; (dose: 16.0 mg/kg/injection, schedule: Q01DX009 (ip), vehicle: saline) 168 % of control; (dose: 25.0 mg/kg/injection, schedule: Q01DX009 (ip), vehicle: Klucel (hydroxypropylcellulose) (HPC)) 195 % of control; (dose: 25.0 mg/kg/injection, schedule: Q01DX009 (ip), vehicle: saline) 195 % of control; (dose: 25.0 mg/kg/injection, schedule: Q04DX003 (ip), vehicle: saline) 111 % of control. Moreover, the T/C runs as follows: (dose: 32.0 mg/kg/injection, schedule: Q01DX009 (ip), vehicle: saline) 167 % of control; (dose: 44.0 mg/kg/injection, schedule: Q01DX009 (ip), vehicle: other) 158 % of control; (dose: 50.0 mg/kg/injection, schedule: Q01DX009 (ip), vehicle: Klucel (hydroxypropylcellulose) (HPC)) 188 % of control; under setting [3], 215 % of control; (dose: 50.0 mg/kg/injection, schedule: Q04DX003 (ip), vehicle: saline) 111 % of control; (dose: 64.0 mg/kg/injection, schedule: Q01DX009 (ip), vehicle: saline) 193 % of control. In addition, the T/C reads like this: under setting [4], 206 % of control; (dose: 100.0 mg/kg/injection, schedule: Q01DX009 (ip), vehicle: other) 170 % of control; (dose: 100.0 mg/kg/injection, schedule: Q01DX009 (ip), vehicle: saline) 110 % of control; (dose: 128.0 mg/kg/injection, schedule: Q01DX009 (ip), vehicle: saline) 228 % of control; (dose: 200.0 mg/kg/injection, schedule: Q01DX009 (ip), vehicle: saline) 90 % of control; (dose: 250.0 mg/kg/injection, schedule: Q01DX009 (ip), vehicle: saline) 192 % of control. Also, the T/C by setting is: (dose: 256.0 mg/kg/injection, schedule: Q01DX009 (ip), vehicle: saline) 270 % of control; (dose: 400.0 mg/kg/injection, schedule: Q04DX003 (ip), vehicle: saline) 238 % of control.

Consider `O=c1c2ccc(Cl)cc2[nH]c2ccc(Cl)cc12`, for which the T/C under setting [5] was 103 % of control, the T/C under setting [6] was 100 % of control and the T/C under setting [7] is 99 % of control.

`CCN1/C(=C/C=C/C=C\C=C\c2sc3ccc4ccccc4c3[n+]2CC)Sc2ccc3ccccc3c21`: the T/C (dose: 1.56 mg/kg/injection, schedule: Q04DX002 (ip), vehicle: saline with Tween-80) was 173 % of control and the T/C (dose: 3.12 mg/kg/injection, schedule: Q04DX002 (ip), vehicle: saline with Tween-80) was 162 % of control.

Turning to `NC(N)=Nc1ccc(C(=O)Oc2ccc([N+](=O)[O-])cc2CN2CCCCC2)cc1`, the T/C is, setting by setting: (dose: 0.78 mg/kg/injection, schedule: Q01DX009 (ip), vehicle: water) 101 % of control; (dose: 0.78 mg/kg/injection, schedule: Q04DX003 (ip), vehicle: water) 100 % of control; (dose: 1.56 mg/kg/injection, schedule: Q01DX009 (ip), vehicle: water) 93 % of control; (dose: 1.56 mg/kg/injection, schedule: Q04DX003 (ip), vehicle: water) 105 % of control; (dose: 3.12 mg/kg/injection, schedule: Q01DX009 (ip), vehicle: water) 100 % of control; (dose: 3.12 mg/kg/injection, schedule: Q04DX003 (ip), vehicle: water) 113 % of control. Moreover, the T/C was 104 % of control (dose: 6.25 mg/kg/injection, schedule: Q01DX009 (ip), vehicle: water); 104 % of control (dose: 6.25 mg/kg/injection, schedule: Q04DX003 (ip), vehicle: water); 95 % of control (dose: 12.5 mg/kg/injection, schedule: Q04DX003 (ip), vehicle: water).

Regarding `CCCN1c2ccccc2Sc2ccccc21`, the T/C under setting [5] was 100 % of control, the T/C under setting [6] is 90 % of control, the T/C under setting [7] was 90 % of control and the T/C under setting [8] is 90 % of control.

For `COC(=O)C1C2CC[N+]3(CCCCC13)O2` (stereo not drawn), the T/C is, setting by setting: (dose: 3.13 mg/kg/injection, schedule: Q01DX009 (ip), vehicle: saline) 100 % of control; under setting [1], 100 % of control; under setting [2], 93 % of control and 109 % of control; under setting [3], 105 % of control.

`Cc1nc(Cl)c2c(n1)Oc1nc(C)nc(Cl)c1C2c1ccc(Cl)cc1`: the T/C by setting is: (dose: 100.0 mg/kg/injection, schedule: Q01DX001 (ip), vehicle: Klucel (hydroxypropylcellulose) (HPC)) 88 % of control and 100 % of control; (dose: 200.0 mg/kg/injection, schedule: Q01DX001 (ip), vehicle: Klucel (hydroxypropylcellulose) (HPC)) 95 % of control; (dose: 400.0 mg/kg/injection, schedule: Q01DX001 (ip), vehicle: Klucel (hydroxypropylcellulose) (HPC)) 88 % of control and 90 % of control.

With `CC(C)(O)C(NC(N)=O)c1ccccc1` (stereo not drawn), the T/C was 104 % of control (dose: 50.0 mg/kg/injection, schedule: Q01DX009 (ip), vehicle: saline with Tween-80); 101 % of control under setting [9]; 100 % of control under setting [10].

For the compound `C[C@@H]1C[C@@]2(C)C(=CC1=O)CC[C@@H]1C2=CC[C@@]2(C)[C@H]1CC[C@]2(C)O`, the T/C under setting [4] was 100 % of control and 110 % of control; the T/C (dose: 100.0 mg/kg/injection, schedule: Q04DX003 (ip), vehicle: alcohol) was 100 % of control; the T/C (dose: 200.0 mg/kg/injection, schedule: Q01DX009 (ip), vehicle: Klucel (hydroxypropylcellulose) (HPC)) was 90 % of control and 100 % of control; the T/C (dose: 200.0 mg/kg/injection, schedule: Q04DX003 (ip), vehicle: alcohol) was 105 % of control; the T/C (dose: 400.0 mg/kg/injection, schedule: Q01DX009 (ip), vehicle: Klucel (hydroxypropylcellulose) (HPC)) was 90 % of control and 113 % of control; the T/C (dose: 400.0 mg/kg/injection, schedule: Q04DX003 (ip), vehicle: alcohol) is 95 % of control.

Turning to `CC(C)CCCCCCCCOC(=O)c1ccccc1C(=O)OCCCCCCCCC(C)C`, the T/C is 109 % of control under setting [7]; 109 % of control under setting [8]; 104 % of control (dose: 400.0 mg/kg/injection, schedule: Q04DX003 (ip), vehicle: saline with Tween-80).

With `CCN(CC)CCC1(C#N)Cc2ccccc2N(CC)c2ccccc21` (stereo not drawn), the T/C is 107 % of control under setting [9] and 113 % of control under setting [10].

With `CC(C)(C)C[CH2][Hg][Cl]`, the T/C (dose: 3.13 mg/kg/injection, schedule: Q04DX003 (ip), vehicle: saline) was 105 % of control; the T/C (dose: 6.25 mg/kg/injection, schedule: Q04DX003 (ip), vehicle: saline) is 100 % of control; the T/C (dose: 8.25 mg/kg/injection, schedule: Q04DX003 (ip), vehicle: saline sonified) is 109 % of control; the T/C (dose: 12.5 mg/kg/injection, schedule: Q04DX003 (ip), vehicle: saline sonified) was 113 % of control; the T/C (dose: 18.75 mg/kg/injection, schedule: Q04DX003 (ip), vehicle: saline sonified) is 100 % of control.

`ClC(Cl)(Cl)CC(Br)c1ccccc1` (stereo not drawn): the T/C (dose: 100.0 mg/kg/injection, schedule: Q04DX003 (ip), vehicle: saline sonified) is 91 % of control; the T/C (dose: 200.0 mg/kg/injection, schedule: Q04DX003 (ip), vehicle: saline sonified) was 100 % of control; the T/C (dose: 400.0 mg/kg/injection, schedule: Q04DX003 (ip), vehicle: saline sonified) was 100 % of control.
